Source: ChEMBL document CHEMBL5729174, “Substituted benzofuran, benzopyrrole, benzothiophene, and structurally related complement inhibitors” (2022)

Biological target: Complement factor D (Homo sapiens, UniProt P00746)
Assay: Factor D Esterolytic Assay: An established esterolytic assay for the measurement of Factor D activity and inhibition of Factor D activity was used (Kam, C. M.; McRae, B. J.; Harper, J. W.; Niemann, M. A.; Volanakis, J. E.; Powers, J. C. Human complement proteins D, C2, and B Active site mapping with peptide thioester substrates. J Biol. Chem. 1987, 262, 3444-3451). For this assay Z-Lys-SBzl, 1.29 mM (Kim, S.; Narayana, S. V. L; Volanakis, J. E. Mutational analysis of the substrate binding site of human complement Factor D. Biochemistry. 1994, 33, 14393-14399.) was used as the substrate for Factor D ([…]). Hydrolysis of this compound by Factor D liberated a free sulfhydryl group which is then reacted with 5,5′-dithiobis(2nitrobenzoic acid) producing an intense yellow color (Habeeb, A. F. S. A. Reaction of protein sulfhydryl groups with Ellman's Reagent. Methods in Enzymol. 1976, 25, 457-464). The assays were performed in 96 well microtiter plates and rates of hydrolysis were monitored at 405 nm on a Biotek Synergy H1 plate reader. Hydrolysis rates were reported as change in mOD/min. The assay was conducted in 100 mM HEPES, 500 mM NaCl, pH 7.5 containing 10% DMSO in a final volume of 50 μL per well.

Complement factor D, sequence (P00746 whole entry): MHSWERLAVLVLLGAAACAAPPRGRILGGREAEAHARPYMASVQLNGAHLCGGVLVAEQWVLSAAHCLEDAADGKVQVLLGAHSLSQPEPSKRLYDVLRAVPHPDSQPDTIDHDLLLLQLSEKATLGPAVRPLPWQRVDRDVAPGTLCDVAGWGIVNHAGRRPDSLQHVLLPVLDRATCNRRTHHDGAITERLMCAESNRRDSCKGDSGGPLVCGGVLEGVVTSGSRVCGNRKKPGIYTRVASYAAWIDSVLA

CS(=O)(=O)n1ccc2c(-c3ccnc(CN)c3F)cc(COc3ccccc3CC(=O)O)cc21
IC50: < 1000 nM

NCc1nccc(-c2cc(COc3ccccc3CC(=O)O)cc3c2ccn3S(=O)(=O)C2CC2)c1F
IC50: < 1000 nM

NCc1cccc(-c2cc(COc3ccc(F)cc3CC(=O)O)cc3ccoc23)c1F
IC50: < 1000 nM

NCc1cccc(-c2cc(COc3ccccc3CC(=O)O)cc3cc[nH]c23)c1
IC50: < 1000 nM
